Assay results taken from patent publication US4336375A, “Cephalosporanic acid derivatives” (American Cyanamid Company, priority 1980, dated 1982).
Converted amounts (≈) assume the structure as drawn. Where two headings read alike, the source gives them in different places.

Columns and labels:
Type in all cases: cell-based
[1] = test system: Klebsiella pneumoniae W75-4; assay: In vitro MIC, agar dilution, Klebsiella pneumoniae W75-4; conditions: W754; Klebsiella pneumoniae W75-4; agar dilution, 35° C., 18 hours, nutrient agar; read-out: Minimal Inhibitory Concentration
Method: (§1) The in vitro activity of representative compounds of the present invention are given in the following Table I in terms of minimal inhibitory concentration. The test used was the standard agar dilution test using a Steers multiple inocula replicator and incubating at 35° C. for 18 hours in conventional nutrient agar.

[2] = test system: Klebsiella pneumoniae W75-2; assay: In vitro MIC, agar dilution, Klebsiella pneumoniae W75-2; conditions: W752; Klebsiella pneumoniae W75-2; agar dilution, 35° C., 18 hours, nutrient agar; read-out: Minimal Inhibitory Concentration
Method: as §1

[3] = test system: Pseudomonas aeruginosa 12-4-4; assay: In vitro MIC, agar dilution, Pseudomonas aeruginosa 12-4-4; conditions: 1244; Pseudomonas aeruginosa 12-4-4; agar dilution, 35° C., 18 hours, nutrient agar; read-out: Minimal Inhibitory Concentration
Method: as §1

[4] = test system: Enterobacter cloacae OSU75-2; assay: In vitro MIC, agar dilution, Enterobacter cloacae OSU75-2; conditions: OSU752; Enterobacter cloacae OSU75-2; agar dilution, 35° C., 18 hours, nutrient agar; read-out: Minimal Inhibitory Concentration
Method: as §1

[5] = test system: Pseudomonas aeruginosa G236; assay: In vitro MIC, agar dilution, Pseudomonas aeruginosa G236; conditions: Pseudomonas aeruginosa G236; agar dilution, 35° C., 18 hours, nutrient agar; read-out: Minimal Inhibitory Concentration
Method: as §1

[6] = test system: Pseudomonas aeruginosa UCS 76-13; assay: In vitro MIC, agar dilution, Pseudomonas aeruginosa UCS 76-13; conditions: UCS7613; Pseudomonas aeruginosa UCS 76-13; agar dilution, 35° C., 18 hours, nutrient agar; read-out: Minimal Inhibitory Concentration
Method: as §1

[7] = test system: Escherichia coli ESS22-31; assay: In vitro MIC, agar dilution, Escherichia coli ESS22-31; conditions: read-out: Minimal Inhibitory Concentration
Method: as §1

Proteus rettgeri N76-1 = assay: In vitro MIC, agar dilution, Proteus rettgeri N76-1; conditions: Providencia rettgeri, N761; Proteus rettgeri N76-1; agar dilution, 35° C., 18 hours, nutrient agar; read-out: Minimal Inhibitory Concentration
Method: as §1

[8] = test system: Klebsiella pneumoniae UR76-1; assay: In vitro MIC, agar dilution, Klebsiella pneumoniae UR76-1; conditions: UR761; Klebsiella pneumoniae UR76-1; agar dilution, 35° C., 18 hours, nutrient agar; read-out: Minimal Inhibitory Concentration
Method: as §1

[9] = test system: Enterobacter aerogenes UR76-3; assay: In vitro MIC, agar dilution, Enterobacter aerogenes UR76-3; conditions: Klebsiella aerogenes, UR763; Enterobacter aerogenes UR76-3; agar dilution, 35° C., 18 hours, nutrient agar; read-out: Minimal Inhibitory Concentration
Method: as §1

Escherichia coli OSU75-1 = assay: In vitro MIC, agar dilution, Escherichia coli OSU75-1; conditions: OSU751, 35° C., 18 hours, nutrient agar, read-out: Minimal Inhibitory Concentration
Method: as §1

Escherichia coli 311 = assay: In vitro MIC, agar dilution, Escherichia coli 311; conditions: 35° C., 18 hours, nutrient agar, read-out: Minimal Inhibitory Concentration
Method: as §1

Serratia K101 = assay: In vitro MIC, agar dilution, Serratia K101; conditions: Serratia K101; agar dilution, 35° C., 18 hours, nutrient agar; read-out: Minimal Inhibitory Concentration
Method: as §1

Proteus vulgaris N74-1 = assay: In vitro MIC, agar dilution, Proteus vulgaris N74-1; conditions: N741, 35° C., 18 hours, nutrient agar, read-out: Minimal Inhibitory Concentration
Method: as §1

[10] = test system: Pseudomonas aeruginosa PD05141; assay: In vitro MIC, agar dilution, Pseudomonas aeruginosa PD05141; conditions: Pseudomonas aeruginosa PD05141; agar dilution, 35° C., 18 hours, nutrient agar; read-out: Minimal Inhibitory Concentration
Method: as §1

[11] = test system: Staphylococcus aureus Q74-1; assay: In vitro MIC, agar dilution, Staphylococcus aureus Q74-1; conditions: Q741; Staphylococcus aureus Q74-1; agar dilution, 35° C., 18 hours, nutrient agar; read-out: Minimal Inhibitory Concentration
Method: as §1

Escherichia coli W75-1 = assay: In vitro MIC, agar dilution, Escherichia coli W75-1; conditions: W751, 35° C., 18 hours, nutrient agar, read-out: Minimal Inhibitory Concentration
Method: as §1

Serratia marcens K77-1 = assay: In vitro MIC, agar dilution, Serratia marcens K77-1; conditions: K771; Serratia marcens K77-1; agar dilution, 35° C., 18 hours, nutrient agar; read-out: Minimal Inhibitory Concentration
Method: as §1

Klebsiella pneumoniae AD = assay: In vitro MIC, agar dilution, Klebsiella pneumoniae AD; conditions: Klebsiella pneumoniae AD; agar dilution, 35° C., 18 hours, nutrient agar; read-out: Minimal Inhibitory Concentration
Method: as §1

Serratia marcens QHC77-2 = assay: In vitro MIC, agar dilution, Serratia marcens QHC77-2; conditions: QHC772; Serratia marcens QHC77-2; agar dilution, 35° C., 18 hours, nutrient agar; read-out: Minimal Inhibitory Concentration
Method: as §1

Enterococcus SM77-15 = assay: In vitro MIC, agar dilution, Enterococcus SM77-15; conditions: SM7715; Enterococcus SM77-15; agar dilution, 35° C., 18 hours, nutrient agar; read-out: Minimal Inhibitory Concentration
Method: as §1

[12] = test system: Staphylococcus aureus Q74-6; assay: In vitro MIC, agar dilution, Staphylococcus aureus Q74-6; conditions: Q746; Staphylococcus aureus Q74-6; agar dilution, 35° C., 18 hours, nutrient agar; read-out: Minimal Inhibitory Concentration
Method: as §1

[13] = test system: Enterobacter cloacae MA75-1; assay: In vitro MIC, agar dilution, Enterobacter cloacae MA75-1; conditions: MA751; Enterobacter cloacae MA75-1; agar dilution, 35° C., 18 hours, nutrient agar; read-out: Minimal Inhibitory Concentration
Method: as §1

[14] = test system: Klebsiella pneumoniae MA75-1; assay: In vitro MIC, agar dilution, Klebsiella pneumoniae MA75-1; conditions: MA751; Klebsiella pneumoniae MA75-1; agar dilution, 35° C., 18 hours, nutrient agar; read-out: Minimal Inhibitory Concentration
Method: as §1

Proteus morganii K72 = assay: In vitro MIC, agar dilution, Proteus morganii K72; conditions: Morganella morganii; Proteus morganii K72; agar dilution, 35° C., 18 hours, nutrient agar; read-out: Minimal Inhibitory Concentration
Method: as §1

[15] = ESS2231, Escherichia coli ESS22-31, agar dilution, 35° C., 18 hours, nutrient agar
[16] = Escherichia coli, ESS2231, 18 h

CCN1CCN(C(=O)NC(C(=O)NC2C(=O)N3C(C(=O)O)=C(CSc4nnc(-n5cccn5)n4N)CS[C@H]23)c2ccc(O)cc2)C(=O)C1=O (stereo partly shown) [Compound VII, 7-[2-(4-Ethyl-2,3-dioxo-1-piperazinecarboxamido)-2-(p-hydroxyphenyl)acetamido]-3-[4-amino-5-(1-pyrazolyl)-1,2,4-triazol-3-ylthiomethyl]-3-cephem-4-carboxylic acid]
MIC [1]: 32 µg/mL (≈ 45 µM) | MIC [2]: 2 µg/mL (≈ 2.81 µM) | MIC [3]: 16 µg/mL (≈ 22.5 µM) | MIC [4]: 16 µg/mL (≈ 22.5 µM) | MIC [5]: 32 µg/mL (≈ 45 µM) | MIC [6]: 64 µg/mL (≈ 89.9 µM) | MIC [7, 15]: ≤ 0.12 µg/mL | MIC (Proteus rettgeri N76-1): 8 µg/mL (≈ 11.2 µM) | MIC [8]: 16 µg/mL (≈ 22.5 µM) | MIC [9]: 0.25 µg/mL (≈ 0.351 µM) | MIC (Escherichia coli OSU75-1): 1 µg/mL (≈ 1.41 µM) | MIC (Escherichia coli 311): 0.5 µg/mL (≈ 0.703 µM) | MIC (Serratia K101): 32 µg/mL (≈ 45 µM) | MIC (Proteus vulgaris N74-1): 32 µg/mL (≈ 45 µM) | MIC [10]: 64 µg/mL (≈ 89.9 µM) | MIC [11]: 2 µg/mL (≈ 2.81 µM) | MIC (Escherichia coli W75-1): 1 µg/mL (≈ 1.41 µM) | MIC (Serratia marcens K77-1): 64 µg/mL (≈ 89.9 µM) | MIC (Klebsiella pneumoniae AD): 1 µg/mL (≈ 1.41 µM) | MIC (Serratia marcens QHC77-2): 128 µg/mL (≈ 180 µM) | MIC (Enterococcus SM77-15): 128 µg/mL (≈ 180 µM) | MIC [12]: 4 µg/mL (≈ 5.62 µM) | MIC [13]: > 128 µg/mL | MIC [14]: 1 µg/mL (≈ 1.41 µM) | MIC (Proteus morganii K72): 32 µg/mL (≈ 45 µM)

CCN1CCN(C(=O)NC(C(=O)NC2C(=O)N3C(C(=O)O)=C(CSc4nnc(-n5nc(C)cc5C)n4N)CS[C@H]23)c2ccc(O)cc2)C(=O)C1=O (stereo partly shown) [Compound VIII, 7-[2-(4-Ethyl-2,3-dioxo-1-piperazinecarboxamido)-2-(p-hydroxyphenyl)acetamido]-3-[4-amino-5-(3,5-dimethyl-1-pyrazolyl)-1,2,4-triazol-3-ylthiomethyl]-3-cephem-4-carboxylic acid]
MIC [1]: 32 µg/mL (≈ 43.3 µM) | MIC [2]: 4 µg/mL (≈ 5.41 µM) | MIC [3]: 32 µg/mL (≈ 43.3 µM) | MIC [4]: 128 µg/mL (≈ 173 µM) | MIC [5]: 128 µg/mL (≈ 173 µM) | MIC [6]: > 128 µg/mL | MIC [7, 15]: ≤ 0.12 µg/mL | MIC (Proteus rettgeri N76-1): 16 µg/mL (≈ 21.6 µM) | MIC [8]: 32 µg/mL (≈ 43.3 µM) | MIC [9]: 1 µg/mL (≈ 1.35 µM) | MIC (Escherichia coli OSU75-1): 4 µg/mL (≈ 5.41 µM) | MIC (Escherichia coli 311): 2 µg/mL (≈ 2.7 µM) | MIC (Serratia K101): 64 µg/mL (≈ 86.5 µM) | MIC (Proteus vulgaris N74-1): 128 µg/mL (≈ 173 µM) | MIC [10]: > 128 µg/mL | MIC [11]: 4 µg/mL (≈ 5.41 µM) | MIC (Escherichia coli W75-1): 4 µg/mL (≈ 5.41 µM) | MIC (Serratia marcens K77-1): 128 µg/mL (≈ 173 µM) | MIC (Klebsiella pneumoniae AD): 2 µg/mL (≈ 2.7 µM) | MIC (Serratia marcens QHC77-2): > 128 µg/mL | MIC (Enterococcus SM77-15): 128 µg/mL (≈ 173 µM) | MIC [12]: 8 µg/mL (≈ 10.8 µM) | MIC [13]: > 128 µg/mL | MIC [14]: 2 µg/mL (≈ 2.7 µM) | MIC (Proteus morganii K72): 32 µg/mL (≈ 43.3 µM)

CC(=O)OCC1=C(C(=O)O)N2C(=O)[C@@H](NC(=O)[C@H](N)c3ccccc3)[C@H]2SC1 [Compound XI, Cephaloglycin, reference compound]
MIC [1]: 8 µg/mL (≈ 19.7 µM) | MIC [2]: 2 µg/mL (≈ 4.93 µM) | MIC [3]: > 128 µg/mL | MIC [4]: > 128 µg/mL | MIC [5]: > 128 µg/mL | MIC [6]: > 128 µg/mL | MIC [7, 16]: 0.12 µg/mL (≈ 0.296 µM) | MIC (Proteus rettgeri N76-1): > 128 µg/mL | MIC [8]: 16 µg/mL (≈ 39.5 µM) | MIC [9]: 2 µg/mL (≈ 4.93 µM) | MIC (Escherichia coli OSU75-1): 2 µg/mL (≈ 4.93 µM) | MIC (Escherichia coli 311): 2 µg/mL (≈ 4.93 µM) | MIC (Serratia K101): > 128 µg/mL | MIC (Proteus vulgaris N74-1): > 128 µg/mL | MIC [10]: > 128 µg/mL | MIC [11]: 1 µg/mL (≈ 2.47 µM) | MIC (Escherichia coli W75-1): 2 µg/mL (≈ 4.93 µM) | MIC (Serratia marcens K77-1): > 128 µg/mL | MIC (Klebsiella pneumoniae AD): 0.5 µg/mL (≈ 1.23 µM) | MIC (Serratia marcens QHC77-2): > 128 µg/mL | MIC (Enterococcus SM77-15): 64 µg/mL (≈ 158 µM) | MIC [12]: 0.12 µg/mL (≈ 0.296 µM) | MIC [13]: > 128 µg/mL | MIC [14]: 1 µg/mL (≈ 2.47 µM) | MIC (Proteus morganii K72): > 128 µg/mL

Cc1nnc(SCC2=C(C(=O)O)N3C(=O)[C@@H](NC(=O)Cn4cnnn4)[C@H]3SC2)s1 [Compound XII, Cefazolin, reference compound]
MIC [1]: 8 µg/mL (≈ 17.6 µM) | MIC [2]: 1 µg/mL (≈ 2.2 µM) | MIC [3]: > 128 µg/mL | MIC [4]: > 128 µg/mL | MIC [5]: > 128 µg/mL | MIC [6]: > 128 µg/mL | MIC [7, 16]: 0.25 µg/mL (≈ 0.55 µM) | MIC (Proteus rettgeri N76-1): > 128 µg/mL | MIC [8]: 64 µg/mL (≈ 141 µM) | MIC [9]: 2 µg/mL (≈ 4.4 µM) | MIC (Escherichia coli OSU75-1): 1 µg/mL (≈ 2.2 µM) | MIC (Escherichia coli 311): 0.5 µg/mL (≈ 1.1 µM) | MIC (Serratia K101): > 128 µg/mL | MIC (Proteus vulgaris N74-1): > 128 µg/mL | MIC [10]: > 128 µg/mL | MIC [11]: 0.12 µg/mL (≈ 0.264 µM) | MIC (Escherichia coli W75-1): 1 µg/mL (≈ 2.2 µM) | MIC (Serratia marcens K77-1): > 128 µg/mL | MIC (Klebsiella pneumoniae AD): 0.5 µg/mL (≈ 1.1 µM) | MIC (Serratia marcens QHC77-2): > 128 µg/mL | MIC (Enterococcus SM77-15): 16 µg/mL (≈ 35.2 µM) | MIC [12]: ≤ 0.06 µg/mL | MIC [13]: > 128 µg/mL | MIC [14]: 1 µg/mL (≈ 2.2 µM) | MIC (Proteus morganii K72): > 128 µg/mL
